The source of these data is patent publication US20230339891A1, “URACIL DERIVATIVES AS MER-AXL INHIBITORS” (BRISTOL-MYERS SQUIBB COMPANY, priority 2018, published 2023).

In one experiment the target is GST-MERTK 578-872 (Homo sapiens (Human), UniProt Q12866). Description: MERTK kinase homogeneous time resolved fluorescence (HTRF) binding assay. To be noted: 1 nM kinase, fluorescein-labeled kinase tracer at Kd, 60 minutes at room temperature; read-out: Mer HTRF IC50. The method in brief:
(§1)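 HTRF binding read-out after 60 min at room temperature, expressed as the 520/495 nm (fluorescein/terbium) ratio. Inhibition normalized to no-protein (100%) and vehicle (0%) controls. IC50 from 11-point dose-response; compounds from 10 mM DMSO stocks.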

The next experiment deals with HIS-AXL 473-End (Homo sapiens (Human), UniProt P30530). Briefly: AXL kinase homogeneous time resolved fluorescence (HTRF) binding assay. Particulars: 1 nM kinase, fluorescein-labeled kinase tracer at Kd, 60 minutes at room temperature. The procedure, abridged:
as §1

Chain of HIS-AXL 473-End (P30530 473-894): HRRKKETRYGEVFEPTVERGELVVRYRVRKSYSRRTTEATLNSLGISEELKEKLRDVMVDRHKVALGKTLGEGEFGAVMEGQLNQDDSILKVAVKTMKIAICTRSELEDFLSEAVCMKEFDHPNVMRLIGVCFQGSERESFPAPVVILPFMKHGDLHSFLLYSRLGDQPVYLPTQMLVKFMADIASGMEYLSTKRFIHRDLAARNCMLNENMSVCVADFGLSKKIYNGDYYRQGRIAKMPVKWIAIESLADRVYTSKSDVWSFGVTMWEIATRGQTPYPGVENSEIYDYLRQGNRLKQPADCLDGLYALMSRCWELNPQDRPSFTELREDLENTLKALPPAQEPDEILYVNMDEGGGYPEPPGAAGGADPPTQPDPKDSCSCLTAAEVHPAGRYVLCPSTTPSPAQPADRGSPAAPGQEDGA
Chain of GST-MERTK 578-872 (Q12866 578-872): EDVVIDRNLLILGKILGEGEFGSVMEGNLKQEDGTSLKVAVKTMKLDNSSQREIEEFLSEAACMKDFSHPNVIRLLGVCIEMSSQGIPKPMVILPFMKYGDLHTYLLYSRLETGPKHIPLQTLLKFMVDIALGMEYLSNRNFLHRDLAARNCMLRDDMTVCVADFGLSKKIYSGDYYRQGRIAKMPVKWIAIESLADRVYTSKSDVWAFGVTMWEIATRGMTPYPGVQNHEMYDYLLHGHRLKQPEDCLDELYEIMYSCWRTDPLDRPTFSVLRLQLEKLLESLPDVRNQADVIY

With `CC(C)n1cc(C(=O)Nc2ccc(Oc3ccnc(Nc4ccc(S(=O)(=O)NC5CC5)cn4)c3)c(F)c2)c(=O)n(-c2ccc(F)cc2)c1=O` [Example 79], the concentration for half-maximal inhibition (IC50) on GST-MERTK 578-872 was determined as 13 nM; at HIS-AXL 473-End, 70 nM.

As for `CC(C)n1cc(C(=O)Nc2ccc(Oc3ccnc(Nc4ccc(S(=O)(=O)NC(C)(C)C)cn4)c3)c(F)c2)c(=O)n(-c2ccc(F)cc2)c1=O` [Example 80], the IC50 at GST-MERTK 578-872 is 19 nM; at HIS-AXL 473-End, 12 nM.

Turning to `CC(C)n1cc(C(=O)Nc2ccc(Oc3ccnc(Nc4ccc(S(=O)(=O)N5CCC5)cn4)c3)c(F)c2)c(=O)n(-c2ccc(F)cc2)c1=O` [Example 81], the values for the IC50 at GST-MERTK 578-872 and at HIS-AXL 473-End were 17 nM and 4.4 nM, respectively.

For the molecule `CC(C)n1cc(C(=O)Nc2ccc(Oc3ccnc(Nc4ccc(S(=O)(=O)N5CC(O)C5)cn4)c3)c(F)c2)c(=O)n(-c2ccc(F)cc2)c1=O` [Example 82], the half-maximal inhibitory concentration (IC50) at GST-MERTK 578-872 is 8.8 nM; at HIS-AXL 473-End, 256 nM.

For the molecule `CC(C)n1cc(C(=O)Nc2ccc(Oc3ccnc(Nc4ccc(S(=O)(=O)N5CCOCC5)cn4)c3)c(F)c2)c(=O)n(-c2ccc(F)cc2)c1=O` [Example 84], the concentration for half-maximal inhibition (IC50) at GST-MERTK 578-872 was 31 nM; on HIS-AXL 473-End it was 2330 nM.

As for `CC(C)n1cc(C(=O)Nc2ccc(Oc3ccnc(Nc4ccc(S(=O)(=O)N5CCN(C)CC5)cn4)c3)c(F)c2)c(=O)n(-c2ccc(F)cc2)c1=O` [Example 85], the values for the IC50 on GST-MERTK 578-872 and at HIS-AXL 473-End were 19 nM and 3.9 nM, respectively.

Turning to `Cc1cc(Nc2cc(Oc3ccc(NC(=O)c4cn(C(C)C)c(=O)n(-c5ccc(F)cc5)c4=O)cc3F)ccn2)ncc1S(=O)(=O)N(C)C` [Example 86, N-{4-[(2-{[5-(dimethylsulfamoyl)-4-methylpyridin-2-yl]amino}pyridin-4-yl)oxy]-3-fluorophenyl}-3-(4-fluorophenyl)-2,4-dioxo-1-(propan-2-yl)-1,2,3,4-tetrahydropyrimidine-5-carboxamide], the values for the IC50 on GST-MERTK 578-872 and on HIS-AXL 473-End were 31 nM and 10 nM, respectively.

Regarding `CC(C)n1cc(C(=O)Nc2ccc(Oc3ccnc(Nc4ccc(NS(C)(=O)=O)cn4)c3)c(F)c2)c(=O)n(-c2ccc(F)cc2)c1=O` [Example 87, N-[3-fluoro-4-({2-[(5-methanesulfonamidopyridin-2-yl)amino]pyridin-4-yl}oxy)phenyl]-3-(4-fluorophenyl)-2,4-dioxo-1-(propan-2-yl)-1,2,3,4-tetrahydropyrimidine-5-carboxamide], the IC50 on GST-MERTK 578-872 came out at 6.7 nM; on HIS-AXL 473-End, 16 nM.

With `CC(C)n1cc(C(=O)Nc2ccc(Oc3ccnc(Nc4ccc(N5CCCC5=O)cn4)c3)c(F)c2)c(=O)n(-c2ccc(F)cc2)c1=O` [Example 88, N-{3-fluoro-4-[(2-{[5-(2-oxopyrrolidin-1-yl)pyridin-2-yl]amino}pyridin-4-yl)oxy]phenyl}-3-(4-fluorophenyl)-2,4-dioxo-1-(propan-2-yl)-1,2,3,4-tetrahydropyrimidine-5-carboxamide], the values for the half-inhibitory concentration (IC50) at GST-MERTK 578-872 and on HIS-AXL 473-End were 5.6 nM and 3.3 nM, respectively.

Consider `CC(C)n1cc(C(=O)Nc2ccc(Oc3ccnc(Nc4ccc(N5CCC(NC(=O)OC(C)(C)C)C5=O)cn4)c3)c(F)c2)c(=O)n(-c2ccc(F)cc2)c1=O` (stereo not shown) [Example 89], for which the IC50 on GST-MERTK 578-872 turned out to be 6.6 nM; on HIS-AXL 473-End, 4.4 nM.

As for `CC(C)n1cc(C(=O)Nc2ccc(Oc3ccnc(Nc4ccc(N5CCC(N)C5=O)cn4)c3)c(F)c2)c(=O)n(-c2ccc(F)cc2)c1=O` (stereo not shown) [Example 90], the figures for the IC50 on GST-MERTK 578-872 and at HIS-AXL 473-End were 3.1 nM and 2.2 nM, respectively.

As to `CC(C)n1cc(C(=O)Nc2ccc(Oc3ccnc(Nc4ccc(N5CCN(C(C)(C)C)C5=O)cn4)c3)c(F)c2)c(=O)n(-c2ccc(F)cc2)c1=O` [Example 91], the concentration for half-maximal inhibition (IC50) on GST-MERTK 578-872 is 72 nM; at HIS-AXL 473-End, 38 nM.

On to `CC(C)n1cc(C(=O)Nc2ccc(Oc3ccnc(Nc4ccc(C(=O)NCC(C)(C)O)cn4)c3)c(F)c2)c(=O)n(-c2ccc(F)cc2)c1=O` [Example 92, N-(3-Fluoro-4-{[2-({5-[(2-hydroxy-2-methylpropyl)carbamoyl]pyridin-2-yl}amino)pyridin-4-yl]oxy}phenyl)-3-(4-fluorophenyl)-2,4-dioxo-1-(propan-2-yl)-1,2,3,4-tetrahydropyrimidine-5-carboxamide], for which the half-maximal inhibitory concentration (IC50) at GST-MERTK 578-872 worked out at 1.9 nM; on HIS-AXL 473-End, 0.4 nM.

For the molecule `CC(C)n1cc(C(=O)Nc2ccc(Oc3ccnc(Nc4ccc(C(=O)NCCN5CCOCC5)cn4)c3)c(F)c2)c(=O)n(-c2ccc(F)cc2)c1=O` [Example 93], the IC50 was found to be 1.6 nM on GST-MERTK 578-872 and 0.4 nM on HIS-AXL 473-End.

For `CC(C)n1cc(C(=O)Nc2ccc(Oc3ccnc(Nc4ccc(C(=O)NCC(F)F)cn4)c3)c(F)c2)c(=O)n(-c2ccc(F)cc2)c1=O` [Example 95], the values for the half-inhibitory concentration (IC50) on GST-MERTK 578-872 and on HIS-AXL 473-End were 4.3 nM and 0.8 nM, respectively.

`CC(C)n1cc(C(=O)Nc2ccc(Oc3ccnc(Nc4ccc(C(=O)NS(=O)(=O)C(C)C)cn4)c3)c(F)c2)c(=O)n(-c2ccc(F)cc2)c1=O` [Example 96]: the values for the half-inhibitory concentration (IC50) on GST-MERTK 578-872 and on HIS-AXL 473-End were 2.9 nM and 0.7 nM, respectively.

As to `CC(C)n1cc(C(=O)Nc2ccc(Oc3ccnc(Nc4ccc(C(=O)N(C)C)c(N5CCN(S(C)(=O)=O)CC5)n4)c3)c(F)c2)c(=O)n(-c2ccc(F)cc2)c1=O` [Example 97, N-{4-[(2-{[5-(Dimethylcarbamoyl)-6-(4-methanesulfonylpiperazin-1-yl)pyridin-2-yl]amino}pyridin-4-yl)oxy]-3-fluorophenyl}-3-(4-fluorophenyl)-2,4-dioxo-1-(propan-2-yl)-1,2,3,4-tetrahydropyrimidine-5-carboxamide], the IC50 on GST-MERTK 578-872 is 1 nM; at HIS-AXL 473-End, 0.3 nM.

As for `CC(C)n1cc(C(=O)Nc2ccc(Oc3ccnc(Nc4ccc(S(=O)(=O)N(C)C)c(N(C)C)n4)c3)c(F)c2)c(=O)n(-c2ccc(F)cc2)c1=O` [Example 98, N-{4-[(2-{[6-(dimethylamino)-N,N-(dimethylsulfamoyl)pyridin-2-yl]amino}pyridin-4-yl)oxy]-3-fluorophenyl}-3-(4-fluorophenyl)-2,4-dioxo-1-(propan-2-yl)-1,2,3,4-tetrahydropyrimidine-5-carboxamide], the IC50 was found to be 22 nM at GST-MERTK 578-872 and 36 nM on HIS-AXL 473-End.

Take `CC(C)n1cc(C(=O)Nc2ccc(Oc3ccnc(Nc4ccc(S(=O)(=O)N(C)C)c(N5CCN(S(C)(=O)=O)CC5)n4)c3)c(F)c2)c(=O)n(-c2ccc(F)cc2)c1=O` [Example 99, N-{4-[(2-{[5-(dimethylsulfamoyl)-6-(4-methanesulfonylpiperazin-1-yl)pyridin-2-yl]amino}pyridin-4-yl)oxy]-3-fluorophenyl}-3-(4-fluorophenyl)-2,4-dioxo-1-(propan-2-yl)-1,2,3,4-tetrahydropyrimidine-5-carboxamide]: the 50% inhibitory concentration (IC50) at GST-MERTK 578-872 came to 6.4 nM; at HIS-AXL 473-End it was 7.4 nM.

`COC(=O)N1CCN(c2nc(Nc3cc(Oc4ccc(NC(=O)c5cn(C(C)C)c(=O)n(-c6ccc(F)cc6)c5=O)cc4F)ccn3)ccc2S(=O)(=O)N(C)C)CC1` [Example 100]: the results for the IC50 on GST-MERTK 578-872 and at HIS-AXL 473-End were 2.1 nM and 3.1 nM, respectively.

Regarding `CC(C)n1cc(C(=O)Nc2ccc(Oc3ccnc(Nc4ccnc(N5CCN(S(C)(=O)=O)CC5)n4)c3)c(F)c2)c(=O)n(-c2ccc(F)cc2)c1=O` [Example 102, N-{3-fluoro-4-[(2-{[2-(4-methanesulfonylpiperazin-1-yl)pyrimidin-4-yl]amino}pyridin-4-yl)oxy]phenyl}-3-(4-fluorophenyl)-2,4-dioxo-1-(propan-2-yl)-1,2,3,4-tetrahydropyrimidine-5-carboxamide], the IC50 was 0.5 nM at GST-MERTK 578-872 and 0.9 nM on HIS-AXL 473-End.

For `CC(C)n1cc(C(=O)Nc2ccc(Oc3ccnc(Nc4ccnc(N5CCCC5)n4)c3)c(F)c2)c(=O)n(-c2ccc(F)cc2)c1=O` [Example 103, N-{3-fluoro-4-[(2-{[2-(pyrrolidin-1-yl)pyrimidin-4-yl]amino}pyridin-4-yl)oxy]phenyl}-3-(4-fluorophenyl)-2,4-dioxo-1-(propan-2-yl)-1,2,3,4-tetrahydropyrimidine-5-carboxamide], the half-maximal inhibitory concentration (IC50) is 0.6 nM at GST-MERTK 578-872 and 0.7 nM on HIS-AXL 473-End.

As for `CC(C)n1cc(C(=O)Nc2ccc(Oc3ccnc(Nc4ccnc(N5CCCC5)n4)c3)c(F)c2)c(=O)n(C23CC(C2)C3)c1=O` [Example 104, 3-(Bicyclo[1.1.1]pentan-1-yl)-N-(3-fluoro-4-((2-((2-(pyrrolidin-1-yl)pyrimidin-4-yl)amino)pyridin-4-yl)oxy)phenyl)-1-isopropyl-2,4-dioxo-1,2,3,4-tetrahydropyrimidine-5-carboxamide], the 50% inhibitory concentration (IC50) amounted to 3.9 nM at GST-MERTK 578-872 and 3.1 nM at HIS-AXL 473-End.

`O=C(Nc1ccc(Oc2ccnc(Nc3ccnc(N4CCCC4)n3)c2)c(F)c1)c1cn(C2CC2)c(=O)n(-c2ccc(F)cc2)c1=O` [Example 105]: the results for the half-maximal inhibitory concentration (IC50) on GST-MERTK 578-872 and at HIS-AXL 473-End were 1.4 nM and 2.3 nM, respectively.

Regarding `CC(C)n1cc(C(=O)Nc2ccc(Oc3ccnc(Nc4ccnc(N5CCCC5)n4)c3)c(F)c2)c(=O)n(Cc2ccccc2)c1=O` [Example 106], the IC50 on GST-MERTK 578-872 and on HIS-AXL 473-End was 8.2 nM in each case.

`CC(C)Cn1c(=O)c(C(=O)Nc2ccc(Oc3ccnc(Nc4ccnc(N5CCCC5)n4)c3)c(F)c2)cn(C(C)C)c1=O` [Example 107]: the IC50 at GST-MERTK 578-872 is 5.4 nM; on HIS-AXL 473-End, 11 nM.

On to `CC(C)n1cc(C(=O)Nc2ccc(Oc3ccnc(Nc4ccnc(N5CCCC5)n4)c3)c(F)c2)c(=O)n(C(C)C)c1=O` [Example 108], for which the results for the IC50 at GST-MERTK 578-872 and on HIS-AXL 473-End were 9.1 nM and 3.8 nM, respectively.

On to `CC(C)n1cc(C(=O)Nc2ccc(Oc3ccnc(Nc4ccnc(N5CCCC5)n4)c3)c(F)c2)c(=O)n(C2CCCCC2)c1=O` [Example 109], for which the IC50 was 70 nM at GST-MERTK 578-872 and 62 nM on HIS-AXL 473-End.

For the molecule `CS(=O)(=O)C1CCN(c2nccc(Nc3cc(Oc4ccc(NC(=O)c5cn(C6CC6)c(=O)n(-c6ccc(F)cc6)c5=O)cc4F)ccn3)n2)CC1` [Example 112, 1-cyclopropyl-N-{3-fluoro-4-[(2-{[2-(4-methanesulfonylpipedidin-1-yl)pyrimidin-4-yl]amino}pyridin-4-yl)oxy]phenyl}-3-(4-fluorophenyl)-2,4-dioxo-1,2,3,4-tetrahydropyrimidine-5-carboxamide], the IC50 worked out at 4.1 nM on GST-MERTK 578-872 and 0.8 nM at HIS-AXL 473-End.
